Source: patent publication US20030143670A1, “DNA encoding SNORF44 receptor” (priority 1999, published 2003)
Entries after “also recorded” stand apart in the source; their conditions may differ. Where no end group is shown, it is not given here.

Legend:
[1] = target: T1, hSNORF44 (Homo sapiens, UniProt Q96P65); assay: Intracellular Ca2+ release (FLIPR) in transiently transfected COS-7 cells; format: cell-based; parameters: The entire coding region was then amplified by PCR from human spinal cord cDNA and subcloned into pcDNA3.1(−) for expression and functional analyses; expressed in transfected cells; host or cells: COS-7; conditions: COS-7 cells transfected with SNORF44
T1 sequence (Q96P65 1-431): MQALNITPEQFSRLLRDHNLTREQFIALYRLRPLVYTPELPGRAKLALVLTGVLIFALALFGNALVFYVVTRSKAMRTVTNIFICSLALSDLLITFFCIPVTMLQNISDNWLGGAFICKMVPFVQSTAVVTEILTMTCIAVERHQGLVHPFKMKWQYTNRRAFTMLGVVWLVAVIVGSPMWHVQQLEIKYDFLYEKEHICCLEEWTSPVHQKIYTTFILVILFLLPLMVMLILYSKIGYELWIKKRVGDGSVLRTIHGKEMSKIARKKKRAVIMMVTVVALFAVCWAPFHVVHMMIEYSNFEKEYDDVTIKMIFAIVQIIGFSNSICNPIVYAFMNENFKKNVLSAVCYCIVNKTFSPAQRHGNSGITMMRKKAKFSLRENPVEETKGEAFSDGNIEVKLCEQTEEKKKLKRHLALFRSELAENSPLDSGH
Protocol: (§1) A typical protocol for the DEAE-dextran method as applied to COS-7 and HEK293 cells is described as follows. Cells to be used for transfection are split 24 hours prior to the transfection to provide flasks which are 70-80% confluent at the time of transfection. Briefly, 8 μg of receptor DNA plus 8 μg of any additional DNA needed (e.g. Gα protein expression vector, reporter construct, antibiotic resistance marker, mock vector, etc.) are added to 9 ml of complete DMEM plus DEAE-dextran mixture (10 mg/ml in PBS). Cells plated into a T225 flask (sub-confluent) are washed once with PBS and the DNA mixture is added to each flask. The cells are allowed to incubate for 30 minutes at 37° C., 5% CO2. Following the incubation, 36 ml of complete DMEM with 80 μM chloroquine is added to each flask and allowed to incubate an additional 3 hours. The medium is then aspirated and 24 ml of complete medium containing 10% DMSO for exactly 2 minutes and then aspirated. The cells are then washed 2 times with PBS and 30 ml of complete DMEM added to each flask. The cells are then allowed to incubate over night. The next day the cells are harvested by trypsinization and reseeded into 96 well plates.
Cells expressing the receptor of interest are plated into clear, flat-bottom, black-walled 96-well plates (Costar) at a density of 80,000-150,000 cells per well and allowed to incubate for 48 hr at 5% CO2, 37° C. The growth medium is aspirated and 100 μL of loading medium containing Fluo-3 dye is added to each well. […]
(§2) The compounds of interest are diluted in wash buffer (Hank's BSS (without phenol red), 20 mM HEPES, 2.5 mM probenecid) to a 4× final concentration and aliquoted into a clear v-bottom plate (Nunc). […] Compounds are added to the cell plates and responses are measured using the FLIPR™ instrument. The data are then collected and analyzed using the FLIPR™ software and Graphpad Prism. […]

[2] = tested on: human SNORF44; assay: Calcium-activated Cl- currents in Xenopus laevis oocytes (voltage clamp); format: cell-based; conditions: control (uninjected) oocytes not expressing hSNORF44
Protocol: (§3) Oocytes were harvested from Xenopus laevis and injected with mRNA transcripts as previously described (Quick and Lester, 1994; Smith et al.,1997). Synthetic, full-length RNA transcripts for human SNORF44 were produced by digestion of the plasmid BN16 with HINDIII followed by transcription with T7 RNA Polymerase (“Message Machine”, Ambion). Oocytes were injected with 15 ng hSN44 receptors synthetic RNA and incubated for 3-4 days at 17 degrees. Dual electrode voltage clamp (Axon Instruments Inc.) was performed using 3 M KCl-filled glass microelectrodes having resistances of 1-2 Mohm. Unless otherwise specified, oocytes were voltage clamped at a holding potential of −80 mV. During recordings, oocytes were bathed in continuously flowing (1-3 ml/min) medium containing 96 mM NaCl, 2 mM KCl, 1.8 mM CaCl2, 1 mM MgCl2, and 5 mM HEPES, pH 7.5 (ND96 Buffer). Drugs were applied by local perfusion from a […] glass capillary tube fixed at a distance of 0.5 mm from the oocyte.
(§4) Heterologous expression of GPCRs in Xenopus oocytes has been widely used to determine the identity of signaling pathways activated by agonist stimulation (Gundersen et al., 1983; Takahashi et al., 1987). Activation of the phospholipase C (PLC) pathway is assayed by applying test compound in ND96 solution to oocytes previously injected with mRNA for the mammalian receptor and observing inward currents at a holding potential of −80 mV. The appearance of currents that reverse at −25 mV and display other properties of the Ca^++-activated Cl^− (chloride) channel is indicative of mammalian receptor-activation of PLC and release of IP3 and intracellular Ca^++.

[3] = target: T1, hSNORF44; assay: as above; format: cell-based; parameters: Synthetic, full-length RNA transcripts for human SNORF44 were produced by digestion of the plasmid BN16; expressed in transfected cells; host or cells: Xenopus laevis oocytes injected with synthetic RNA; conditions: oocytes injected with SNORF44 mRNA; 10 μM peptide; holding potential -80 mV
Protocol: as §3, §4

[4] = tested on: hSNORF44; assay: Intracellular Ca2+ release (FLIPR) in transiently transfected COS-7 cells; format: cell-based, human; conditions: vector-transfected cells (so in the source); data not shown
Protocol: as §1, with “The cells are then washed 2 times with PBS and 30 ml of complete DMEM added to each flask. The cells are then allowed to incubate over night. The next day the cells are harvested by trypsinization and reseeded into 96 well plates.” left out
as §2

[5] = target: MC3 (Homo sapiens, UniProt P41968); conditions: Schioth et al., 1996; cited from earlier work
Sequence of MC3 (P41968 whole entry): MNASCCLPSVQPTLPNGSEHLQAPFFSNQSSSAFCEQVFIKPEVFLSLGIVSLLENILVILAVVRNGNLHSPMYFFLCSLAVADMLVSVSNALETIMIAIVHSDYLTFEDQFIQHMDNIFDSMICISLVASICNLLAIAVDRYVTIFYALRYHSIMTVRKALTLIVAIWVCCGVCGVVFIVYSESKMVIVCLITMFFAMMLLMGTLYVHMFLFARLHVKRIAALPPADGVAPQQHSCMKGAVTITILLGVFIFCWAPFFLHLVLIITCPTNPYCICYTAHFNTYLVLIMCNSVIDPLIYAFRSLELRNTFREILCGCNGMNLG

[6] = target: T1, hSNORF44; assay: Inositol phosphate (IP) release in transfected COS-7 cells; format: cell-based; parameters: The entire coding region was then amplified by PCR from human spinal cord cDNA and subcloned into pcDNA3.1(−) for expression and functional analyses; expressed in transfected cells; host or cells: COS-7; conditions: hSNORF44-transfected COS-7 cells
Protocol: as §1, with “The medium is then aspirated and 24 ml of complete medium containing 10% DMSO for exactly 2 minutes and then aspirated. The cells are then washed 2 times with PBS and 30 ml of complete DMEM added to each flask. The cells are then allowed to incubate over night. The next day the cells are harvested by trypsinization and reseeded into 96 well plates.” left out
Human SNORF44 receptor-mediated activation of the inositol phosphate (IP) second messenger pathways were assessed by radiometric measurement of IP products.
For example, in a 96 well microplate format assay, COS-7 cells expressing the receptor of interest were plated at a density of 70,000 cells per well and allowed to incubate for 24 hours. […] 200 μL of scintillation cocktail was added to each well, and the radioactivity was determined by liquid scintillation counting.

[7] = target: T2, human SNORF44 receptor (human, UniProt Q96P65 1-431); assay: cell-based or functional assay
T2 sequence: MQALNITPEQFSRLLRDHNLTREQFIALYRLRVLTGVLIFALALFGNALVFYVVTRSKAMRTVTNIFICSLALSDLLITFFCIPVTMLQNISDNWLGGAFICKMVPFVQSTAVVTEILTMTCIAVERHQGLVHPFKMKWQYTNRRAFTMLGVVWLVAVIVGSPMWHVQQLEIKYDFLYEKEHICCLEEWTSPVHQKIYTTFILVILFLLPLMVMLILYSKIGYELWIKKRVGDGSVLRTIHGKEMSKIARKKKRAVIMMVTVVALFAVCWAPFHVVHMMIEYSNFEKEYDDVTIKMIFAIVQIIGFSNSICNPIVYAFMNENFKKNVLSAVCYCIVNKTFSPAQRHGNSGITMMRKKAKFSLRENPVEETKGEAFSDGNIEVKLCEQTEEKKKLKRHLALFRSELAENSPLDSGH

## H-YGGHFRW-NH2 [Peptide 3, YGGHFRW-NH2]
[1]
  release of intracellular Ca2+ as measured by FLIPR: stimulated release of intracellular Ca^2+
[2]
  response in control oocytes: not in control oocytes
[3]
  current amplitude (Ca2+-dependent Cl- current): 250±46 nA

## NPY [reference compound]
[4]
  effect on intracellular Ca2+ release: neither NPFF nor NPY (ligands activating the most closely related GPCRs) had any significant effect

## H-MGHFRF-NH2 [Peptide 2, MGHFRF-NH2]
[1]
  release of intracellular Ca2+ as measured by FLIPR: stimulated release of intracellular Ca^2+
[2]
  response in control oocytes: not in control oocytes
[3]
  current amplitude (Ca2+-dependent Cl- current): 241±65 nA

## gamma melanocortin [γ-MSH]
[5]
  agonist activity at recombinant MC3 receptor: agonist

## H-YSMEHFRW-NH2 [Peptide 1]
[6]
  release of IP second messengers, fold above basal: approximately 10 fold
[1]
  release of intracellular Ca2+ as measured by FLIPR: concentration-dependent release of intracellular Ca^2+
[2]
  response in control oocytes: no response; also recorded: does not respond
[3]
  current amplitude (Ca2+-dependent Cl- current): 1036±306 nA

## NPFF (FLFQPQRF; ends and bridges not checked; UniProt O15130 69-76, looked up) [reference compound]
[4]
  effect on intracellular Ca2+ release: neither NPFF nor NPY (ligands activating the most closely related GPCRs) had any significant effect

## MGHFRF-NH2 [Peptide 2]
[7]
  EC50, release of IP second messengers, COS-7 cells: 294 nM

## YSMEHFRW-NH2 [Peptide 1]
[7]
  EC50, release of IP second messengers, COS-7 cells: 1210 nM
  release of IP second messengers, fold above basal, COS-7 cells: ~10 fold

## YGGHFRW-NH2 [Peptide 3]
[7]
  EC50, release of IP second messengers, COS-7 cells: 328 nM
